Drawing on ChEMBL document CHEMBL1201862, “PubChem BioAssay data set” (2004), this text covers EC50, IC50 and AC50 for 3 molecules.

For orientation: EC50 means the concentration needed to bring the measured effect to its halfway point. What is called IC50 is the point on the concentration scale where inhibition reaches its midpoint. For orientation: AC50 means the concentration giving half of the maximal activity seen.

Assay [1] deals with Peroxisome proliferator-activated receptor gamma/Nuclear receptor coactivator 2 (Homo sapiens, UniProt P37231). The format is functional.
Assay [2] addresses Peroxisome proliferator-activated receptor gamma/Nuclear receptor coactivator 1 (Homo sapiens, UniProt P37231). It is filed as functional.
Assay [3] deals with Peroxisome proliferator-activated receptor gamma/Nuclear receptor coactivator 3 (Homo sapiens, UniProt P37231). The format is functional.
Sequence of Peroxisome proliferator-activated receptor gamma/Nuclear receptor coactivator 3 (P37231 whole entry): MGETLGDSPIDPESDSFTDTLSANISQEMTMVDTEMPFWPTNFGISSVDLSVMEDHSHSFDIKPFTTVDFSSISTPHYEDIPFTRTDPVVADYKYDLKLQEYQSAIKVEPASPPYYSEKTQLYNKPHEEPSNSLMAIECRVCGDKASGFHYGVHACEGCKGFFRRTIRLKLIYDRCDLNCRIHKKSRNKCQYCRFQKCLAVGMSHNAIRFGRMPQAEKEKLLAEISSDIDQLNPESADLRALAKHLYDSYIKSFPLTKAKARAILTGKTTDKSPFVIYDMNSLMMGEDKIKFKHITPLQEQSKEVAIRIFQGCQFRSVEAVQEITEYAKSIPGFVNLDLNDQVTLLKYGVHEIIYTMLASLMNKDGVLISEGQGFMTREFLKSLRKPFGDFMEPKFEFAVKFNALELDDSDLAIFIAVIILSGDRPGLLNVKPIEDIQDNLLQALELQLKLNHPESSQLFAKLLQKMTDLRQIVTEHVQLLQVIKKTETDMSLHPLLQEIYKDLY
Sequence of Peroxisome proliferator-activated receptor gamma/Nuclear receptor coactivator 3 (Q9Y6Q9 whole entry, further chain): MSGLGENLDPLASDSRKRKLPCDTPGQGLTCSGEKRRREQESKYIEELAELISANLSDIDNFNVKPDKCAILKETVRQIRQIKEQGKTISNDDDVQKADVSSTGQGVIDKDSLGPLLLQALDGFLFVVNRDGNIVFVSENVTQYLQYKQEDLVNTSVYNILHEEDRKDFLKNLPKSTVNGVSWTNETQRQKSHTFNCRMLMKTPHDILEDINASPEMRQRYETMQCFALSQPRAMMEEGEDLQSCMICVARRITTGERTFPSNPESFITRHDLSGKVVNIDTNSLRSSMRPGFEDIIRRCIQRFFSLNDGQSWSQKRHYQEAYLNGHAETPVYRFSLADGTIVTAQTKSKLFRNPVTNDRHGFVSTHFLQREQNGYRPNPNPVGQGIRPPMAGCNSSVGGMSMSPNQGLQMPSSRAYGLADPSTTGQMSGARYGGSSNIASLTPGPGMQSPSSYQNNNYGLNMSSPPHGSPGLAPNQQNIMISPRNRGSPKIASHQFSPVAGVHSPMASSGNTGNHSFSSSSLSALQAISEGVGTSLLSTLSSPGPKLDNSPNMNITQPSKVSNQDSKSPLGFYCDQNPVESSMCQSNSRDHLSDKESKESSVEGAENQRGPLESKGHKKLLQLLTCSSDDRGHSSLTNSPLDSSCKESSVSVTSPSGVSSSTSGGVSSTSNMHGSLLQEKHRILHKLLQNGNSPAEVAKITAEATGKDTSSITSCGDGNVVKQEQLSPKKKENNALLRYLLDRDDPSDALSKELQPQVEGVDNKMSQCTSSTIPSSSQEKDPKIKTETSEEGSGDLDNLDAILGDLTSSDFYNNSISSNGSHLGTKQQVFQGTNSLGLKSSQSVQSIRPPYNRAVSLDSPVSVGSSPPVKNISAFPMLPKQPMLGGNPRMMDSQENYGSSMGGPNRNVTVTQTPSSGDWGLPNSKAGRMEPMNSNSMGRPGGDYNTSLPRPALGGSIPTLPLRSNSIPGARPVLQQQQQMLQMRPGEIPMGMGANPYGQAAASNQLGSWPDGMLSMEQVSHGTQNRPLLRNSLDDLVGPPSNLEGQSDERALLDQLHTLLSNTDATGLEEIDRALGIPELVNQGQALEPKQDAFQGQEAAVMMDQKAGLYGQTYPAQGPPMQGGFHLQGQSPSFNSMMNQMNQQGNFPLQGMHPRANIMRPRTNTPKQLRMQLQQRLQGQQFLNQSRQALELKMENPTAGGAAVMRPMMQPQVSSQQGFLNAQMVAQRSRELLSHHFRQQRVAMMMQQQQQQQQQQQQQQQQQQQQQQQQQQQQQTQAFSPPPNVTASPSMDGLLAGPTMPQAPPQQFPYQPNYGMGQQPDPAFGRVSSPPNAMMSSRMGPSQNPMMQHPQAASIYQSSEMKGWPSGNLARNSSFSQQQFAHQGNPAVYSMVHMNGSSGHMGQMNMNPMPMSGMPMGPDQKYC
Assay [4] has as its target T1, Calpain-2 catalytic subunit (Sus scrofa, UniProt P43367).
T1 sequence (P43367 whole entry): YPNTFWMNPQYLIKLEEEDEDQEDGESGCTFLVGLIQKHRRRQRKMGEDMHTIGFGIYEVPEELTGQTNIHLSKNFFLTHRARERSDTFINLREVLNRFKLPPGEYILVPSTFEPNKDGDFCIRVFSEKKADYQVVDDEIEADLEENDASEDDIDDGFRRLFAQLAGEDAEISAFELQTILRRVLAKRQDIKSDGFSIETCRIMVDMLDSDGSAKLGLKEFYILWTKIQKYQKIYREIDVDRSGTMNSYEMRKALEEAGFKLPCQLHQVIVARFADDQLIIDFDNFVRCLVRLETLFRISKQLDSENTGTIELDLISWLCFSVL
Put plainly: m-calpain protease blockers, concentration series – biochemical, fluorogenic peptide substrate, dose response (AID 1420). It is filed as functional.

Assay [5] concerns the target Eukaryotic translation initiation factor 4E (Mus musculus, UniProt P63073). Put plainly: blockers of eIF4G binding by eIF4E – biochemical, TR-FRET, dose response (AID 855).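 Note: potency for disrupting eIF4E binding to eIF4GI seen as loss of FRET.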 It is filed as functional. For orientation: TR-FRET usually uses a lanthanide donor and a delayed reading to cut background.
The target of assay [6] is Glyceraldehyde-3-phosphate dehydrogenase (Homo sapiens, UniProt P04406).
Sequence of Glyceraldehyde-3-phosphate dehydrogenase (P04406 whole entry): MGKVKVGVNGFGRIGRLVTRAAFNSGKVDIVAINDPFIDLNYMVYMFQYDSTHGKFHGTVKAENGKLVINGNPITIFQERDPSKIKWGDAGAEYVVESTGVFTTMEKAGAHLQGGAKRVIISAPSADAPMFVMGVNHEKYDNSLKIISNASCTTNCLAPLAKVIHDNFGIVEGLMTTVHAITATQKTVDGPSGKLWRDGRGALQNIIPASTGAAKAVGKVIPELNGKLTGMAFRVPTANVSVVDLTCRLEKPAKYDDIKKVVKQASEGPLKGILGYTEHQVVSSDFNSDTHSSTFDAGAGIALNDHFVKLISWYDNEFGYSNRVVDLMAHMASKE
Assay [7] deals with Intestinal-type alkaline phosphatase (Mus musculus, UniProt P24822). Briefly: PubChem AID 488874. The format is functional.
Sequence of Intestinal-type alkaline phosphatase (Mus musculus, UniProt P24822) (P24822 whole entry): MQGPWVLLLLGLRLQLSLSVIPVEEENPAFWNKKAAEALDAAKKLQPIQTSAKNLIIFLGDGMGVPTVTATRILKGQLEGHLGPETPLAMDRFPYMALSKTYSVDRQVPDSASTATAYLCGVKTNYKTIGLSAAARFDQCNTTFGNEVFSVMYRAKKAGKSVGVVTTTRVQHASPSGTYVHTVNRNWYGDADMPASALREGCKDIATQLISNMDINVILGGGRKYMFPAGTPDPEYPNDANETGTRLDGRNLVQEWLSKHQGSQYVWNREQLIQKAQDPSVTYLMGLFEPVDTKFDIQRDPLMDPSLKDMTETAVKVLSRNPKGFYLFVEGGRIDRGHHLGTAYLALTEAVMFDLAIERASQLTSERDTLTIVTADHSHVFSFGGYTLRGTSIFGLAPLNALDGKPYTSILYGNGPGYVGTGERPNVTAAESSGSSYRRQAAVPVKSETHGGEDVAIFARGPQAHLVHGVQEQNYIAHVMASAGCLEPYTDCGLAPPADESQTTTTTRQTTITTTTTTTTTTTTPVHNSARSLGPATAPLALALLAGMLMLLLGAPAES
Assay [8] concerns the target T2, Intestinal-type alkaline phosphatase (Homo sapiens, UniProt P09923). Briefly: human intestinal alkaline phosphatase activators, dose response, biochemical, luminescence, uHTS hits (AID 463120). It is filed as functional.
Assay [9] addresses Alkaline phosphatase, placental type (Homo sapiens, UniProt P05187). Put plainly: human placental alkaline phosphatase inhibition – biochemical, luminescence, confirmation (AID 1512). The format is functional.
For assay [10], the target named is T2, Intestinal-type alkaline phosphatase. Briefly: activation of human intestinal alkaline phosphatase – biochemical, luminescent, uHTS hits, set 2, dose response (AID 488817).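 Note: potency of activators that raise enzyme activity.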 It is filed as functional.
The test system of assay [11] is HEK293. Briefly: inhibition of NOD1-driven NF-kB reporter – cell-based, luminescence, uHTS, primary screen (AID 1578). The following applies: Homo sapiens. The format is functional.
Assay [12] concerns HEK293. Put plainly: cells. The format is functional, cell-based. Conditions: Homo sapiens.
In assay [13] the test system is HEK293. Briefly: cells. The format is functional, cell-based. Conditions: Homo sapiens. The source holds these as a separate data set.
For assay [14], the target named is Nucleotide-binding oligomerization domain-containing protein 2 (Homo sapiens, UniProt Q9HC29). Put plainly: inhibition of NOD2-driven NF-kB reporter – cell-based, luminescence, uHTS, HEK293 (AID 1566). It is filed as functional.
The test system of assay [15] is HEK293. Briefly: NOD2 signaling inhibitors in MDP-stimulated cells, cell-based, uHTS, luminescence (AID 2001). It is filed as functional. The following applies: Homo sapiens.
Assay [16] concerns HEK293. Briefly: cells. Conditions: Homo sapiens. It is filed as functional, cell-based. This is another data set of the same source.
Assay [17] deals with G-protein coupled receptor 55 (Homo sapiens, UniProt Q9Y2T6). Briefly: selective activators of receptor GPR55 – imaging, U2OS cells, beta-arrestin-GFP redistribution, primary screen (AID 1961). The format is functional.
Sequence of G-protein coupled receptor 55 (Q9Y2T6 whole entry): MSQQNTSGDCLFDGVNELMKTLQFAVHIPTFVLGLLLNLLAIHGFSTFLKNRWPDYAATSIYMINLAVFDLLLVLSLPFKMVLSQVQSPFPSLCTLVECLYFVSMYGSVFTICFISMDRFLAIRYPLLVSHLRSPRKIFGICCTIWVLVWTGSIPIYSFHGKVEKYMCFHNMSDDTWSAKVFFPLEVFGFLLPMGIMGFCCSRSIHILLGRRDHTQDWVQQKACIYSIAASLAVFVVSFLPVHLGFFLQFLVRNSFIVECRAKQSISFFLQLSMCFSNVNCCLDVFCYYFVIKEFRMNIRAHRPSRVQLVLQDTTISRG
Assay [18] in a line: reduction of Shn3 3'UTR-driven luciferase in osteoblasts – cell-based, Clone20 osteoblasts, firefly luciferase, cherry-picked, dose response (AID 624132).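 Note: firefly luciferase luminescence from reporter carrying the Shn3 3'UTR in osteoblasts.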 The format is functional.
Assay [19] in a line: loss of viability in HepG2 cells – cell-based, CellTiter-Glo, cherry-picked, cytotoxicity control for Shn3 inhibitor project, dose response (AID 624134). The format is functional.
A short description of assay [20]: non-specific 3'UTR reporter inhibition in Clone20-Shn3RL – cell-based, Renilla luciferase, cherry-picked, counter-screen for Shn3 inhibitor project, dose response (AID 624133). The format is functional.
A further assay deals with Paired box protein Pax-8 (Homo sapiens, UniProt Q06710). Briefly: PAX8 transcriptional activity inhibition in RMG-I – RMG-I cells, luciferase, cherry-pick, dose response (AID 687027).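 Note: luciferase reporter driven by Pax8 target thyroperoxidase promoter measured by SteadyGlo luminescence.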 The format is functional, cell-based.
Sequence of Paired box protein Pax-8 (Q06710 whole entry): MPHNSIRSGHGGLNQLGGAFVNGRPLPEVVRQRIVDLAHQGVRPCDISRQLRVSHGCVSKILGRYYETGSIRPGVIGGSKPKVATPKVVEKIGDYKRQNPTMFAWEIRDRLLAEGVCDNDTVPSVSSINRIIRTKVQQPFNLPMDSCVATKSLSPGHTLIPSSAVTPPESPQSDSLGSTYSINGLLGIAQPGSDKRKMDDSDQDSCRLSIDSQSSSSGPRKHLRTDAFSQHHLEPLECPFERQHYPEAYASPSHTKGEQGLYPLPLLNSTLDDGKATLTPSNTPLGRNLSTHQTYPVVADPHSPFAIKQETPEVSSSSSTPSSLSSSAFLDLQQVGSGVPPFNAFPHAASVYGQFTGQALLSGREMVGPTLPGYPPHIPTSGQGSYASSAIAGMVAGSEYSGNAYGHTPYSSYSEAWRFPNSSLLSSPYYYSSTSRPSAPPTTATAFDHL
Assay [21] is described as follows: general cell-killing toxicity readout – plate reader, dry powder samples, cytotoxicity control for PAX8 inhibitor project, dose response (AID 743021). The format is functional, cell-based.

The source made the active and inactive calls. Bounds are passed on as bounds.

Sequence of Alkaline phosphatase, placental type (P05187 whole entry): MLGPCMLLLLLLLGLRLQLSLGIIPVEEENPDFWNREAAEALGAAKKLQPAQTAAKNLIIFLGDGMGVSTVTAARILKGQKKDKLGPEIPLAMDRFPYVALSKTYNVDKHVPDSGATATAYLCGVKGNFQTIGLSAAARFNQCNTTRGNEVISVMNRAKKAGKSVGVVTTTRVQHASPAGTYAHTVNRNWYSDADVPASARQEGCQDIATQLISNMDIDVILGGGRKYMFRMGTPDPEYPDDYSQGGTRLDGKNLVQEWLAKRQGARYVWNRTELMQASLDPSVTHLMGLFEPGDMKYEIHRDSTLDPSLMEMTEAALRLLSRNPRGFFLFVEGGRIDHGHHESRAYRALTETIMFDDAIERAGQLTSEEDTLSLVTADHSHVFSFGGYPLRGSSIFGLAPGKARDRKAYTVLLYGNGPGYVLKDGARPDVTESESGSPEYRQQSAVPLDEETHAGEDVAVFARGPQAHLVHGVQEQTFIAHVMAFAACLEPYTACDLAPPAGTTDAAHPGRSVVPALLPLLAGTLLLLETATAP
T2 sequence (P09923 whole entry): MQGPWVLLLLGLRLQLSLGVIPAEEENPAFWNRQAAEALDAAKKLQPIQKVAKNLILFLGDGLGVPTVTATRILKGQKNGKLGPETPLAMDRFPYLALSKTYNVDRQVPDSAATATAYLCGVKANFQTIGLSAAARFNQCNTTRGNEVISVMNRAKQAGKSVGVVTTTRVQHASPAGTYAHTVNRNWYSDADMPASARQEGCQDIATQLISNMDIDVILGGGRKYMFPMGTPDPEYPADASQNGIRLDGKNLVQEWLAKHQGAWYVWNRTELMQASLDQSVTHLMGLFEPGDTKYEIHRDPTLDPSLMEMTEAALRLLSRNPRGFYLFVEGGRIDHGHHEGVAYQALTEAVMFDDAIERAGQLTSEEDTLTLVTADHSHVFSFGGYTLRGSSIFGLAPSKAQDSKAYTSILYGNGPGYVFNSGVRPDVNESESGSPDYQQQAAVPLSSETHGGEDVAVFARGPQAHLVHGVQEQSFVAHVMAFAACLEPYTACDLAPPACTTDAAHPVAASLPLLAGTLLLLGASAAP
Sequence of Eukaryotic translation initiation factor 4E (P63073 whole entry): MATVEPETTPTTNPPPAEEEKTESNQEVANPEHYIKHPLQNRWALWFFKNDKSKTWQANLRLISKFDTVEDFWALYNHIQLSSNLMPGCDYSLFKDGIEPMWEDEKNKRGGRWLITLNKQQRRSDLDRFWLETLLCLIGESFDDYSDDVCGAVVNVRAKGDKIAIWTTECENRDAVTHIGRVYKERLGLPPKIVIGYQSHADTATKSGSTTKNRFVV

In the case of `NS(=O)(=O)c1ccc(NC(=S)NCc2ccc(Cl)cc2)cc1`, the EC50 in [1], in assay [2] and in assay [3] was > 79.4 µM (not active) each time. Moreover, the values for the IC50 in [4] and in assay [5] were 9.36 µM (not active) and > 64 µM (inactive), respectively.

As to `Cc1cc(OCC(=O)Nc2nc[nH]n2)ccc1Cl`, the IC50 in assay [6] is > 10 µM (inconclusive); in assay [7], > 100 µM (inactive); in [9], > 100 µM (inactive). The 50% effective concentration (EC50) in assay [8] was 10.7 µM (active); in assay [10] it was 21 µM (active).

In the case of `CCOc1ccc(C(=O)C(CCC(CN(C)C)C(=O)c2ccc(OCC)cc2)CN(C)C)cc1` (configuration not stated), the EC50 is 15.9 µM (active) in the assay on HEK293 [11], > 20 µM (inactive) in assay [14] and > 32 µM (inactive) in assay [17]. Also, the IC50 was 1.53 µM (active) in the assay with HEK293 [12], 6.72 µM (active) in the assay with HEK293 [13], 2.48 µM (active) in the assay on HEK293 [15] and > 20 µM (inactive) in the assay on HEK293 [16]. Also, the AC50 in assay [18] was 1.61 µM (active); in [19] it was 6.77 µM (active); in [20], 7.72 µM (active); on Paired box protein Pax-8, 4.27 µM (active); in assay [21], 36.7 µM (active).
